The target of this test is T1, cytochrome c′ (AXCP) (Achromobacter xylosoxidans, UniProt P00138, L16G).
T1 sequence (P00138 1-127 L16G): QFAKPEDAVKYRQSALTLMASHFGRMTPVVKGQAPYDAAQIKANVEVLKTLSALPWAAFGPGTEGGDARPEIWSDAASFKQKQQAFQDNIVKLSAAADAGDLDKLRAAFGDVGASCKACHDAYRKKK
Nature of the test: UV-vis titration. The format is binding.

SMILES strings stand for the structures.

Usually Kd stands for the equilibrium constant for the complex coming apart.

On to `O=NO` [nitrite], for which the Kd turned out to be 500 ± 150 µM.

These data come from paper PMC5677563 (Inorganic chemistry, 2017).
